# Results as given in patent US7981924B2, “Thiophene derivatives” (Actelion Pharmaceuticals Ltd., priority 2005, dated 2011).
# Assays:
# [1] = tested on: circulating lymphocytes; assay: Assessment of in vivo efficacy: circulating lymphocytes after oral administration; parameters: species or system normotensive male Wistar rats; conditions: 6 h after oral administration of 10 mg/kg, male Wistar rats, compared to vehicle group; mean ± SEM
# Protocol: The efficacy of the compounds of Formula (I) is assessed by measuring the circulating lymphocytes after oral administration of 3 to 30 mg/kg of a compound of Formula (I) to normotensive male Wistar rats. The animals are housed in climate-controlled conditions with a 12 h-light/dark cycle, and have free access to normal rat chow and drinking water. Blood is collected before and 3, 6 and 24 h after drug administration. Full blood is subjected to hematology using Advia Hematology system (Bayer Diagnostics, Zurich, Switzerland).
# All data are presented as mean ±SEM. Statistical analyses are performed by analysis of variance (ANOVA) using Statistica (StatSoft) and the Student-Newman-Keuls procedure for multiple comparisons. The null hypothesis is rejected when p<0.05.
# [2] = target: recombinant human S1P1 receptor (Homo sapiens, UniProt P21453); assay: GTPγS assay to determine EC50 values; format: biochemical; conditions: 35S-GTPγS binding, membrane preparations of CHO cells expressing recombinant human S1P1 receptor
# Protocol: GTPγS binding assays are performed in 96 well microtiter plates (Nunc, 442587) in a final volume of 200 μl, using membrane preparations of CHO cells expressing recombinant human S1P1 receptor. Assay conditions are 20 mM Hepes (Fluka, 54461), 100 mM NaCl (Fluka, 71378), 5 mM MgCl2 (Fluka, 63064), 0.1% BSA (Calbiochem, 126609), 1 μM GDP (Sigma, G-7127), 2.5% DMSO (Fluka, 41644), 50 pM ^35S-GTPγS (Amersham Biosciences, SJ1320). The pH is 7.4. Test compounds are dissolved and diluted in 100% DMSO and pre-incubated at room temperature for 30 min in 150 μl of the above assay buffer, in the absence of ^35S-GTPγS. After addition of 50 μl of ^35S-GTPγS, the assay is incubated for 1 h at rt. The assay is terminated by transfer of the reaction mixture to a Multiscreen plate (Millipore, MAHFC1H60) using a cell harvester from Packard Biosciences, and the plates are washed with ice-cold 10 mM Na2HPO4/NaH2PO4 (70%/30%), dried, sealed at the bottom and, after addition of 25 μl MicroScint20 (Packard Biosciences, order no. 6013621), sealed on the top. Membrane-bound ^35S-GTPγS is measured with a TopCount from Packard Biosciences.
# EC50 is the concentration of agonist inducing 50% of the maximal specific ^35S-GTPγS binding. Specific binding is determined by subtracting non-specific binding from maximal binding. […]
# The EC50 value was determined according to the method described above.
# Sequence of recombinant human S1P1 receptor (P21453 whole entry): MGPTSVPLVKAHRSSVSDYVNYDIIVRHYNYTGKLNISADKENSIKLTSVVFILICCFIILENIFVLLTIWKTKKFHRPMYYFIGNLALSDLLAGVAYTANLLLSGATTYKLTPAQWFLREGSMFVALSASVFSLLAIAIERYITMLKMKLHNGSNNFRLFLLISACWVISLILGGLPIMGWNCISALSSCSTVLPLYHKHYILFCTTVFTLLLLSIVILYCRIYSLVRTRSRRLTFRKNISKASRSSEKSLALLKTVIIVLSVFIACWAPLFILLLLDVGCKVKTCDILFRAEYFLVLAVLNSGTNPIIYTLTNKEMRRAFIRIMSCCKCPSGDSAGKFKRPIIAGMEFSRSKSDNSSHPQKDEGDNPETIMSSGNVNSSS
SMILES,Lymphocyte counts [1],EC50 [2]
"CCc1sc(C(=O)CCc2cc(C)c(CCC(=O)O)c(C)c2)c2c1CC(C)(C)CC2 [Example 1, 3-{4-[3-(3-ethyl-5,5-dimethyl-4,5,6,7-tetrahydro-benzo[c]thiophen-1-yl)-3-oxo-propyl]-2,6-dimethyl-phenyl}-propionic acid]",−61 ± 5%,
"CCc1cc(CCC(=O)c2sc(C(F)(F)F)c3c2CCC(C)(C)C3)cc(C)c1CCC(=O)O [Example 4, 3-{4-[3-(5,5-Dimethyl-3-trifluoromethyl-4,5,6,7-tetrahydro-benzo[c]thiophen-1-yl)-3-oxo-propyl]-2-ethyl-6-methyl-phenyl}-propionic acid]",,4 nM
